Results taken from US20240397946A1 (priority 2021, published 2024).
Values joined by “and” are separate entries in the source; they are usually repeats but may differ in a detail not shown here. Equal values may be shown once. Read-outs that look alike come from different tables or passages of the source.

Assays:
[1] = triazole fungicides; PPDB; cited from earlier work
[2] = cited from earlier work; for Classification (acid/base) / dissociation constant - Pka: triazole fungicides, PPDB
[3] = PPDB, cited from earlier work; for Solubility in water: triazole fungicides
[4] = soybean, in vivo
[5] = Percentage of light absorption of the three active ingredients between 200 and 330 nm; settings: for Percentage of light absorption: typical application concentrations
[6] = parameters: RL50 min / RL50 max / RL50 average: unit not given beside the values; settings: cited from earlier work; for average daily rates of degradation: PPDB
[7] = Levels of fungicides in soybean leaves (total, internal, leaf surface, rainwater) at 3, 6 and 11 DAA, normalized by dose
[8] = Persistence of fungicides in the plant matrix (RL50, half-life, daily degradation; literature)
[9] = strobilurin group; PPDB / PubChem; cited from earlier work
Corynespora cassiicola = assay: Target spot severity, AUDPC and control efficiency on soybean, Anaurilândia, MS; settings: 2020
[10] = Grape, Italy, Fruit, In and On, Open field, Garau 2009
[11] = Green bean, Egypt, Leaves, On, Open field, Hanafi 2010
[12] = Peanut, India, Leaves, In and On, Open field, Rao 2013
[13] = Rice, China, Whole plant, In and On, Open field, Guo 2017
[14] = Spring onion, Egypt, Leaves, On, Open field, Hanafi
[15] = Strawberry, China, Fruit, In and On, Undercover, Zhang 2009
[16] = Strawberry, China, Fruit, On, Undercover, Wang Z. 2015
[17] = Tomato, Fruit, In and On, Undercover, Jankowska 2016

N#CC(CCc1ccc(Cl)cc1)(Cn1cncn1)c1ccccc1 (centres unmarked) [fenbuconazole]
Log Kow (Log de P) [1]: 3.79
Classification (acid/base) [2]: no dissociation
Solubility in water [3]: 2.47 mg/L oR PPM

CCCCC(O)(Cn1cncn1)c1ccc(Cl)cc1Cl (centres unmarked) [hexaconazole]
Classification (acid/base) [2]: strong acid

CCCC1COC(Cn2cncn2)(c2ccc(Cl)cc2Cl)O1 (centres unmarked) [propiconazole]
Log Kow (Log de P) [1]: 3.72
Classification (acid/base) [2]: very weak base

CC(C1CC1)C(O)(Cn1cncn1)c1ccc(Cl)cc1 (centres unmarked) [cyproconazole]
average total levels for all commercial products and evaluated prototypes ([4]; 3 days after application): 267 (ng/g)/(g/ha)
percentage of the internal content in relation to the total content ([4]; 3 days after application): 69%
average total levels for all commercial products and evaluated prototypes ([4]; 6 days after application): 173 ng.ha/g2
percentage of the internal content in relation to the total content ([4]; 6 days after application): 62%
average total levels for all commercial products and evaluated prototypes ([4]; 11 days after application): 83 ng.ha/g2
percentage of the internal content in relation to the total content ([4]; 11 days after application): 85%
Classification (acid/base) [2]: no dissociation
Percentage of light absorption ([5]; Partial UVA, 315 a 330 nm): 0.00000%
Percentage of light absorption ([5]; Partial UVC, 200 a 280 nm): 0.3824%
Percentage of light absorption ([5]; UVB, 280 a 315 nm): 0.00943%

N#Cc1c(Cl)c(Cl)c(Cl)c(C#N)c1Cl [chlorothalonil]
average daily rates of degradation ([6]; […]): 12.9%
average daily rates of degradation ([6]; only on the surface of plant tissues): 11.8%
Percentage of light absorption ([5]; Partial UVA, 315 a 330 nm): 100%
Percentage of light absorption ([5]; Partial UVC, 200 a 280 nm): 98.35%
Percentage of light absorption ([5]; UVB, 280 a 315 nm): 99.95%
ultraviolet light absorbed between 200 and 330 nm ([5]; typical concentrations of application in the field): practically all
solubility [3]: 0.81 ppm
water solubilities [3]: 0.81 mg/L
average total levels for all commercial products and evaluated prototypes ([7]; 03 DAA, 40 to 50 repetitions): 210 (ng/g)/(g/ha)
average total levels for all commercial products and evaluated prototypes ([7]; 06 DAA): 132 ng.ha/g2
average total levels for all commercial products and evaluated prototypes ([7]; 11 DAA): 66 ng.ha/g2

Clc1ccc(C2(Cn3cncn3)OCCO2)c(Cl)c1 [azaconazole]
Log Kow (Log de P) [1]: 2.36
Classification (acid/base) [2]: very weak base
Solubility in water [3]: 300 mg/L oR PPM

COC(=O)N(OC)c1ccccc1COc1ccn(-c2ccc(Cl)cc2)n1 [pyraclostrobin]
ionization ([2]; strobilurin group, PPDB / PubChem): not ionizable
RL50 average [6, 10]: 5.40
RL50 max [6, 10]: 5.40
RL50 min [6, 10]: 5.40
RL50 average [6, 11]: 4.30
RL50 max [6, 11]: 4.30
RL50 min [6, 11]: 4.30
RL50 average [6, 12]: 2.86
RL50 max [6, 12]: 2.88
RL50 min [6, 12]: 2.84
RL50 average [6, 13]: 10.10
RL50 max [6, 13]: 13.90
RL50 min [6, 13]: 6.30
RL50 average [6, 14]: 3.10
RL50 max [6, 14]: 3.10
RL50 min [6, 14]: 3.10
RL50 average [6, 15]: 4.06
RL50 max [6, 15]: 4.06
RL50 min [6, 15]: 4.06
RL50 average [6, 16]: 3.70
RL50 max [6, 16]: 3.70
RL50 min [6, 16]: 3.70
RL50 average [6, 17]: 2.78 and 2.70
RL50 max [6, 17]: 2.78 and 2.70
RL50 min [6, 17]: 2.78 and 2.70
Daily percentage of degradation ([8]; in plants, from the literature observations of Table 04): 14.78%
half-life ([8]; in vivo): 104 h
Steam pressure [9]: 2.60E−05 mpa

CC1(C)CCC(Cc2ccc(Cl)cc2)C1(O)Cn1cncn1 (centres unmarked) [metconazole]
Classification (acid/base) [2]: very weak acid

CC1COC(Cn2cncn2)(c2ccc(Oc3ccc(Cl)cc3)cc2Cl)O1 (centres unmarked) [difenoconazole]
Log Kow (Log de P) [1]: 4.36
Classification (acid/base) [2]: strong acid
dissociation constant - Pka [2]: 1.07

CC(Cc1ccc(C(C)(C)C)cc1)CN1C[C@@H](C)O[C@@H](C)C1 (some centres unmarked) [phenpropimorph]
Severity (%) of target spot on soybean plants, Av5 (Corynespora cassiicola; fifth assessment): 29.4 D %
Severity (%) of target spot on soybean plants, Av1 (Corynespora cassiicola; first assessment): 0%
Severity (%) of target spot on soybean plants, Av4 (Corynespora cassiicola; fourth assessment): 8.0 A %
Severity (%) of target spot on soybean plants, Av2 (Corynespora cassiicola; second assessment): 1.4 A %
Severity (%) of target spot on soybean plants, Av6 (Corynespora cassiicola; sixth assessment): 37.2 C %
area under the disease progress curve (AUDPC) (Corynespora cassiicola; target spot, from six severity assessments): 688.9 D
Severity (%) of target spot on soybean plants, Av3 (Corynespora cassiicola; third assessment): 4.6 A %

CC(C)(C)C(O)/C(=C\c1ccc(Cl)cc1)n1cncn1 (centres unmarked) [uniconazole]
Classification (acid/base) [2]: very weak acid

OC(Cc1ccccc1Cl)(Cn1nc[nH]c1=S)C1(Cl)CC1 (centres unmarked) [prothioconazole]
Log Kow (Log de P) [1]: 2
Classification (acid/base) [2]: weak acid
dissociation constant - Pka [2]: 6.9
Solubility in water [3]: 22.5 mg/L oR PPM

FC(F)C(F)(F)OCC(Cn1cncn1)c1ccc(Cl)cc1Cl (centres unmarked) [tetraconazole]
Classification (acid/base) [2]: strong acid

CC1(C)CCC(=Cc2ccc(Cl)cc2)C1(O)Cn1cncn1 (centres unmarked) [triticonazole]
Classification (acid/base) [2]: no dissociation

O=c1c2cc(F)ccc2nc(-n2cncn2)n1-c1ccc(Cl)cc1Cl [fluquinconazole]
Log Kow (Log de P) [1]: 3.24
Classification (acid/base) [2]: strong acid

Fc1ccc([C@]2(Cn3cncn3)O[C@H]2c2ccccc2Cl)cc1 (racemic) [epoxiconazole]
Classification (acid/base) [2]: no dissociation

CC(C)(C)C(O)(CCc1ccc(Cl)cc1)Cn1cncn1 (centres unmarked) [tebuconazole]
Log Kow (Log de P) [1]: 3.7

Clc1ccc(C2(Cn3cncn3)CC(Br)CO2)c(Cl)c1 (centres unmarked) [bromuconazole]
Log Kow (Log de P) [1]: 3.24
Classification (acid/base) [2]: strong acid
Solubility in water [3]: 48.3 mg/L oR PPM
